For data set [1], the system named is Mus musculus. Description: Anti-inflammatory activity in Swiss albino Mus musculus (mouse) assessed as inhibition of carrageenan-induced paw edema at 10 mg/kg, po administered 60 min prior to crrageenan-challenge measured at 360 min relative to control. The data set is classed as functional.
For data set [2], the system named is Mus musculus. Put plainly: Anti-inflammatory activity in Swiss albino Mus musculus (mouse) assessed as inhibition of carrageenan-induced paw edema at 10 mg/kg, po administered 60 min prior to crrageenan-challenge measured at 270 min relative to control. The data set is classed as functional.
Data set [3] concerns Mus musculus. Description: Anti-inflammatory activity in Swiss albino Mus musculus (mouse) assessed as inhibition of carrageenan-induced paw edema at 10 mg/kg, po administered 60 min prior to crrageenan-challenge measured at 180 min relative to control. The data set is classed as functional.
In data set [4] the test system is Mus musculus. Put plainly: Anti-inflammatory activity in Swiss albino Mus musculus (mouse) assessed as inhibition of carrageenan-induced paw edema at 10 mg/kg, po administered 60 min prior to crrageenan-challenge measured at 90 min relative to control. The data set is classed as functional.
For another data set, the system named is Pichia kudriavzevii. Put plainly: Antifungal activity against Pichia kudriavzevii ATCC 6258 after 48 hr by two-fold serial dilution method. The data set is classed as functional. Conditions: ATCC 6258, 48 h.
A further data set concerns Candida albicans. Put plainly: Antifungal activity against Candida albicans ATCC 10231 after 48 hr by two-fold serial dilution method. The data set is classed as functional. Conditions: ATCC 10231, 48 h.
The test system of data set [5] is Pseudomonas aeruginosa. Put plainly: Antibacterial activity against Pseudomonas aeruginosa cloinical isolate after 24 hr by two-fold serial dilution method. The data set is classed as functional.
Data set [6] deals with Pseudomonas aeruginosa. Put plainly: Antibacterial activity against Pseudomonas aeruginosa ATCC 27853 after 24 hr by two-fold serial dilution method. The data set is classed as functional. The following applies: ATCC 27853, 24 h.
In data set [7] the test system is Escherichia coli. Description: Antibacterial activity against Escherichia coli clinical isolate expressing extended spectrum beta-lactamase after 24 hr by two-fold serial dilution method. The data set is classed as functional.
For data set [8], the system named is Escherichia coli. Description: Antibacterial activity against Escherichia coli ATCC 25922 after 24 hr by two-fold serial dilution method. The data set is classed as functional. The following applies: ATCC 25922, 24 h.
The test system of data set [9] is Enterococcus faecalis. Description: Antibacterial activity against Enterococcus faecalis clinical isolate after 24 hr by two-fold serial dilution method. The data set is classed as functional.
Data set [10] deals with Enterococcus faecalis. Put plainly: Antibacterial activity against Enterococcus faecalis ATCC 29212 after 24 hr by two-fold serial dilution method. Conditions: ATCC 29212, 24 h. The data set is classed as functional.
For data set [11], the system named is Staphylococcus aureus. Description: Antibacterial activity against methicillin-resistant Staphylococcus aureus clinical isolate after 24 hr by two-fold serial dilution method. The data set is classed as functional.
Data set [12] deals with Staphylococcus aureus. Description: Antibacterial activity against Staphylococcus aureus ATCC 29213 after 24 hr by two-fold serial dilution method. The data set is classed as functional. Conditions: ATCC 29213, 24 h.
Data set [13] relates to Mus musculus. Put plainly: Anti-inflammatory activity in Swiss albino Mus musculus (mouse) assessed as inhibition of carrageenan-induced paw edema at 100 mg/kg, po administered 60 min prior to crrageenan-challenge measured at 360 min relative to control. The data set is classed as functional.
Data set [14] concerns Mus musculus. Description: Anti-inflammatory activity in Swiss albino Mus musculus (mouse) assessed as inhibition of carrageenan-induced paw edema at 100 mg/kg, po administered 60 min prior to crrageenan-challenge measured at 270 min relative to control. The data set is classed as functional.
In data set [15] the test system is Mus musculus. Description: Anti-inflammatory activity in Swiss albino Mus musculus (mouse) assessed as inhibition of carrageenan-induced paw edema at 100 mg/kg, po administered 60 min prior to crrageenan-challenge measured at 180 min relative to control. The data set is classed as functional.
Data set [16] concerns Mus musculus. Description: Anti-inflammatory activity in Swiss albino Mus musculus (mouse) assessed as inhibition of carrageenan-induced paw edema at 100 mg/kg, po administered 60 min prior to crrageenan-challenge measured at 90 min relative to control. The data set is classed as functional.
Data set [17] deals with Mus musculus. Description: Ulcerogenic activity in p-benzoquinone-challenged Swiss albino Mus musculus (mouse) at 100 mg/kg, po administered 60 min prior to p-benzoquinone-challenge by microscopic analysis. Conditions: in vivo, 1 h. Further details: dose 100 mg/kg, route oral. The data set is classed as toxicity, organism-based.
In data set [18] the test system is Mus musculus. Description: Analgesic activity in Swiss albino Mus musculus (mouse) assessed as inhibition of p-benzoquinone-induced writhing at 100 mg/kg, po administered 60 min prior to p-benzoquinone-challenge measured up to 15 min relative to control. The data set is classed as functional.

We go through three compounds from ChEMBL document CHEMBL3045332, “Synthesis of some new 2,6-disubstituted-3(2H)-pyridazinone derivatives and investigation of their analgesic, anti-inflammatory and antimicrobial activities” (Med Chem Res, 2013).

Converted amounts (≈) assume the structure as drawn.

For the compound `COc1ccc2c(c1)c(CC(=O)O)c(C)n2C(=O)c1ccc(Cl)cc1` [INDOMETHACIN], the inhibition in vivo at 10 mg/kg with Mus musculus [1] was found to be 39.4%; with Mus musculus [2], 37.6%; with Mus musculus [3] it was 36.9%; in the data set with Mus musculus [4], 25.3%.

Regarding `O=c1ccc(-c2ccc(Cl)cc2)nn1CCN1CCN(c2ccc(F)cc2)CC1`, the MIC in the data set on Pichia kudriavzevii is 32 µg/mL (≈ 77.5 µM); with Candida albicans, 32 µg/mL (≈ 77.5 µM); in the data set on Pseudomonas aeruginosa [5], 64 µg/mL (≈ 155 µM); with Pseudomonas aeruginosa [6], 64 µg/mL (≈ 155 µM); in the data set with Escherichia coli [7], 64 µg/mL (≈ 155 µM); with Escherichia coli [8] it was 64 µg/mL (≈ 155 µM). The MIC against Enterococcus faecalis [9] came to 64 µg/mL (≈ 155 µM); against Enterococcus faecalis [10], 64 µg/mL (≈ 155 µM); against Staphylococcus aureus [11], 128 µg/mL (≈ 310 µM); in the data set on Staphylococcus aureus [12], 64 µg/mL (≈ 155 µM). The inhibition in vivo at 100 mg/kg in the data set on Mus musculus [13] came to 28.8%; with Mus musculus [14], 35.3%; with Mus musculus [15] it was 28.3%; in the data set on Mus musculus [16], 29.5%; with Mus musculus [18], 57.5%. Further, in the data set with Mus musculus [17], the Activity entry is “Non-toxic”.

With `O=c1ccc(-c2ccccc2)nn1CCN1CCN(c2ccc(F)cc2)CC1`, the minimum inhibitory concentration (MIC) against Pichia kudriavzevii is 32 µg/mL (≈ 84.6 µM); in the data set on Candida albicans, 32 µg/mL (≈ 84.6 µM); with Pseudomonas aeruginosa [5], 64 µg/mL (≈ 169 µM); with Pseudomonas aeruginosa [6], 64 µg/mL (≈ 169 µM); against Escherichia coli [7], 64 µg/mL (≈ 169 µM); against Escherichia coli [8], 64 µg/mL (≈ 169 µM). Further, the minimal inhibitory concentration (MIC) in the data set with Enterococcus faecalis [9] worked out at 64 µg/mL (≈ 169 µM); against Enterococcus faecalis [10] it was 64 µg/mL (≈ 169 µM); with Staphylococcus aureus [11] it was 128 µg/mL (≈ 338 µM); against Staphylococcus aureus [12], 64 µg/mL (≈ 169 µM). The inhibition in vivo at 100 mg/kg turned out to be 19.5% in the data set with Mus musculus [13]; 29.9% with Mus musculus [14]; 26.3% in the data set with Mus musculus [15]; 10.6% in the data set on Mus musculus [16]; 16.8% with Mus musculus [18]. In addition, in the data set on Mus musculus [17], the Activity entry is on record as “Non-toxic”.
